Legend:
VEGF = VEGF ELISA on snap frozen mouse wounds; type: in vivo, mice; settings: same mouse wounds, FIG. 14
Protocol: Amount of VEGF in snap frozen mouse wounds was analyzed using VEGF ELISA as per manufacturer's instructions. Up to 8 wounds were utilized per condition in duplicates and amount of VEGF quantified using internal standards provided by the kit.
ELISA was used to measure levels of VEGF from the same wounds in order to validate that the upregulation at the mRNA level coincides with increased VEGF protein level.

MRSA USA300 = experiment: In vitro MRSA internalization in human keratinocytes; type: cell-based, MRSA USA300 in primary human keratinocytes
Protocol: For all internalization assays, MRSA USA300 strain was used. In vitro pathogen internalization: Primary human keratinocytes were seeded at 5×10^4 in triplicates and allowed to adhere overnight. The following day, they were inoculated with MRSA USA300 conjugated to a pH sensitive dye (pHrodo iFL STP ester, Life Technologies) at 1×10^6 CFU/ml for 1 hr in presence or absence of 1 mM MβCD, prior to washing with PBS. They were then either subject to live cell imaging or washed with lysostaphin for 1 hr (in order to kill any extracellular bacteria), lysed in hypotonic solution and seeded onto blood agar plates in serial dilutions in order to determine relative CFU counts. Ex vivo human skin: Human skin specimens from reduction surgery were obtained and wounded. Briefly, using a biopsy punch 4-mm acute wounds were made in the skin specimens (n=4 per treatment), and either pre-treated in presence or absence of 2 mM MβCD, followed by inoculation with 10 ul of MRSA 10^8 CFU/ml for 24 hrs. Skin was then washed with PBS, incubated with lysostaphin for Ihr in order to kill any extracellular bacteria, lysed with hypotonic solution and subsequent lysate seeded onto blood agar plates in serial dilutions. […]

[1] = test system: 5-mm round excisional dorsal wounds of db/db mice; experiment: Splinted excisional wound healing in db/db mice treated with hydrogel scaffolds; type: in vivo; settings: FIG. 10
Protocol: All animal care and use procedures were approved by the University of Miami Institutional Animal Care and Use Committee (IACUC #19-097). Under anesthesia, 12×7-weeks of age female db/db mice had their dorsal skin hair clipped, depilated and their fasting blood glucose level measured for 3 consecutive days, to validate hyperglycemia (>300 mg/dL was deemed as hyperglycemic). Subsequently, mice's dorsal skin was cleaned with antiseptic solution and four 5-mm round excisional wounds were made, two on each side of the dorsal midline (n=8 wounds per treatment). Dorsal wounds were treated with cylindrical hydrogel scaffolds of 8 mm×2 mm for either 7 or 16 days. Same hydrogel scaffold fabrication procedure was employed (as previously described) and with the same treatment and control formulations as the ex vivo human skin wound models. Scaffolds were fixed on top of the wounds with 14-mm square splints containing a 10 mm circular central opening. Cyanoacrylate glue was used to secure the splints just long enough for 4 non-continuous sutures to adhere the […] to the wound and prevent wound contraction. […] Diabetic mice wounds' closure rate was assessed by histologically analyzing re-epithelialization and epidermal thickness through H&E staining with an Olympus VS120 microscope (Olympus, Tokyo, JPN) and Image J software (NIH, MD, USA). […]

With hydroxypropyl-β-cyclodextrin [HβCD] the “levels of VEGF” value (VEGF) was “increased levels of VEGF”.
For methyl-β-cyclodextrin [MβCD], the “CFU counts of internalized bacteria” value (MRSA USA300; Cav1 overexpressing and Cav1 knockout human keratinocytes, cell lysate on blood agar plates) was “lowered the CFU counts” and the “intracellular MRSA” value (MRSA USA300; treatment administered after MRSA infection, keratinocytes) was “expelled a majority of intracellular MRSA”.
In the case of platelet derived growth factor [PDGF], the “wound closure at the conclusion of the experiment” value [1] is reported as “not fully closed”.

From patent publication US20250367164A1, “THERAPEUTIC COMPOSITIONS FOR SKIN DISORDERS AND WOUND REPAIR” (UNIVERSITY OF MIAMI, priority 2022, published 2025)
